Patent EP2431041A1, “PHARMACEUTICAL COMPOSITION FOR TREATING CARDIOVASCULAR DISORDER AND USE THEREOF” (Chengdu Kanghong Pharmaceutical Co., Ltd., priority 2009, dated 2010)

Key:
[1] = system: rat with an acute myocardial ischemia caused by PIT; assay: rat myocardial ischemia caused by pituitrin (PIT), ST segment of ECG (Test Example 5); type: in vivo, SD rats; conditions: for ΔST Σ: sum of ST segment shift; for ΔST 10 sec / ΔST 30 sec / ΔST 1 min / ΔST 2 min / ΔST 4 min / ΔST 6 min / ΔST 8 min / ΔST 10 min / ΔST 13 min / ΔST 15 min: time after PIT injection
Procedure: Each animal in all groups was intragastrically administered with the corresponding drug at a volume of 10 ml/kg, for 7 successive days. The rat was injected intraperitoneally with 1% sodium pentobarbital (30 mg/kg) 100 min after the final administration. When anesthetized, the animal was immobilized onto a frog board and subjected to trace of normal electrocardiogram over 2 min with Lead II. Then, PIT (1.5 IU/kg) was injected slowly over 20 s into the rat through its tail vein. The changes in the electrocardiogram were traced in 15 min after PIT injection. The data from the ST segment were collected at the time-points of 10 s, 30 s, 1 min, 2 min, 4 min, 6 min, 8 min, 10 min, 13 min, and 15 min. ST segment shifts at the various time-points after modeling were compared.

Beagle canines = assay: long-term toxicity test in canine (21 days): ALT in blood and other indices; type: in vivo; conditions: intragastric once per day
Description: Animals: Conventional, healthy adult Beagle canines, evenly composed of males and females, 6-8 month-old, body weight of 9 - 11 kg.
Medicaments: Z01 (echinocystic acid:oleanolic acid = 3:1, prepared by the method in Example 4, in which the total content of the echinocystic acid and the oleanolic acid is 99%), in-house-made off-white tablet, Lot number: 090205; Z02 (echinocystic acid:oleanolic acid = 1:1, prepared by the method in Example 1, in which the amount of echinocystic acid and oleanolic acid accounts to 94.2% of the amount of the extract), in-house-made off-white tablet, Lot number: 090206; in-house-made echinocystic acid EA (containing 98.5% of echinocystic acid), pure-white powder, Lot number: 090107; physiological saline, colorless clarified liquid, provided by Chengdu QingShan LiKang Pharmarceutical co., Ltd., Lot number: A0803025; Alanine Transarninase (ALT) Kit, provided by Sichuan MiKe Science & Technology Co., Ltd., Lot number: 1007071.
Major instruments: a fully automated blood biochemistry analyzer (Roche Integra 400 Plus, Switzerland), a fully automated hematology analyzer (Abbott CELL-DYN 3700SL, USA), a fully automated blood coagulation analyzer (SYSMEX CA-500, Japan), a four-channel physiological recording system (RM6240, Chengdu Instrument Factory, China), electronic balance, etc.
Procedure: The normal Beagle canines were subjected to quanrantine for two weeks and a dog with abnormal parameters was rejected. The selected dogs were assigned randomly into ten groups: blank control group, low dose Z01 group (the dosage of echinocystic acid, 50 mg/kg), medium dose Z01group (the dosage of echinocystic acid, 150 mg/kg), high dose Z01 group (the dosage of echinocystic acid, 250 mg/kg), Z02 low dose group (the dosage of echinocystic acid, 50 mg/kg), medium dose Z02 group (the dosage of echinocystic acid, 150 mg/kg), high dose Z02 group (echinocystic acid is 250 mg/kg), low dose EA group (50mg/kg), medium dose EA group (150mg/kg), high dose EA group (250mg/kg), with 8 animals per group evenly composed of males and females. All of the dogs in individual groups were intragastrically administered at a volume of 10 ml/kg, once per day and successively for 21 days. Prior to and at Day 21 after the administration, samples of urine excreted naturally in the morning and blood from forelimb vein were collected respectively for urine routine, blood routine, and coagulation-time determination, meanwhile the lead II electrocardiogram was traced. Prior to the administration and at Day 4, Day 7, Day 14, and Day 21 after the first administration, blood samples were collected from the canine forelimb vein and assayed on the biochemical indicator associated with liver function. In twenty-four hours after the final administration, the animals in each group were dissected, autopsied systematically and observed with naked eyes. The parenchymal organs were weighed, subjected to calculation of organ coefficients, and examined histopathologically. […] Pathologic results were descriptively discussed.

[2] = system: rabbit with lipid disorders; assay: lipid disorders in rabbit, serum TC and TG (Test Example 8); type: in vivo, Japanese white rabbit
Description: Procedure: Animals were subjected to acclimation feeding for 10 days. […] After raised with the feed for 15 days, the animals were subjected to blood sampling from central ear artery while fasting. The sera were separated and analyzed for various blood lipid indices. From 40 animals raised with the high-fat feed, 30 animals were selected on the basis of TC content and assigned into five groups by randomized block design with six animals per group; six animals raised with the basal feed were used as the blank control group. […] Administration lasted for 4 weeks. […] ANOVA of randomized block design was used for comparisons among multiple groups, and SNK-q test was used for comparisons between two groups.
Blood samples were collected from the fasting animals in each of the groups of the experiment prior to the administration and in 24 h after the final administration and assayed for the content of total cholesterol (TC) and triglyceride (TG). Table 11 Effect of the drugs in each of the groups on serum TC and TG levels ( x ± s, n =6).

[3] = EA 50.8 mg/kg intragastric 7 days
[4] = echinocystic acid content 50 mg/kg
[5] = echinocystic acid content 150 mg/kg
[6] = echinocystic acid content 250 mg/kg
[7] = EA 12.2 mg/kg intragastric 4 weeks
[8] = OA 17.0 mg/kg intragastric 7 days
[9] = OA 4.0 mg/kg intragastric 4 weeks

For CC1(C)CC[C@]2(C(=O)O)[C@H](O)C[C@]3(C)C(=CC[C@@H]4[C@@]5(C)CC[C@H](O)C(C)(C)[C@@H]5CC[C@]43C)[C@@H]2C1 [EA, echinocystic acid], the “ΔST Σ” value [1, 3] was 0.653± 0.367 mV, the “ΔST 10 sec” value [1, 3] was 0.089± 0.089 mV and the “ΔST 30 sec” value [1, 3] was 0.060± 0.053 mV. For the same compound, the “ΔST 1 min” value [1, 3] was 0.064± 0.032 mV, the “ΔST 2 min” value [1, 3] was 0.075± 0.063 mV and the “ΔST 4 min” value [1, 3] was 0.060± 0.039 mV. The “ΔST 6 min” value [1, 3] was 0.063± 0.045 mV, the “ΔST 8 min” value [1, 3] was 0.070± 0.048 mV and the “ΔST 10 min” value [1, 3] was 0.061± 0.042 mV. For the same compound, the “ΔST 13 min” value [1, 3] was 0.055± 0.039 mV, the “ΔST 15 min” value [1, 3] was 0.056± 0.048 mV and the “ALT at different time-points after administration, Day 4” value (“ALT at different time-points … Day 4” below) (Beagle canines; [4]) was 41.4±9.3 U/L. For the same compound, the “ALT at different time-points after administration, Day 7” value (“ALT at different time-points … Day 7” below) (Beagle canines; [4]) was 60.3±11.6 U/L, the “ALT at different time-points after administration, Day 14” value (“ALT at different time-points … Day 14” below) (Beagle canines; [4]) was 58.3±9.1 U/L and the “ALT at different time-points after administration, Day 21” value (“ALT at different time-points … Day 21” for short) (Beagle canines; [4]) was 69.7±6.2 U/L. The “ALT, Prior to administration” value (Beagle canines; [4]) was 38.8±5.8 U/L, the “ALT at different time-points … Day 4” value (Beagle canines; [5]) was 42.6±8.9 U/L and the “ALT at different time-points … Day 7” value (Beagle canines; [5]) was 70.6±22.3 U/L. The “ALT at different time-points … Day 14” value (Beagle canines; [5]) was 121.3±19.3 U/L, the “ALT at different time-points … Day 21” value (Beagle canines; [5]) was 124.5±35.3 U/L and the “ALT, Prior to administration” value (Beagle canines; [5]) was 40.3±6.2 U/L. The “ALT at different time-points … Day 4” value (Beagle canines; [6]) was 45.4±9.9 U/L, the “ALT at different time-points … Day 7” value (Beagle canines; [6]) was 146.5±49.0 U/L and the “ALT at different time-points … Day 14” value (Beagle canines; [6]) was 167.5±43.3 U/L. The “ALT at different time-points … Day 21” value (Beagle canines; [6]) was 151.3±86.6 U/L, the “ALT, Prior to administration” value (Beagle canines; [6]) was 37.3±5.2 U/L and the “Serum TC After administration” value [2, 7] was 9.77 ± 6.30 mmol/L. The “Serum TC prior to administration” value [2, 7] was 15.07 ± 5.48 mmol/L, the “Serum TG After administration” value [2, 7] was 1.64 ± 0.89 mmol/L and the “Serum TG prior to administration” value [2, 7] was 2.17 ± 1.04 mmol/L.
CC1(C)CC[C@]2(C(=O)O)CC[C@]3(C)C(=CC[C@@H]4[C@@]5(C)CC[C@H](O)C(C)(C)[C@@H]5CC[C@]43C)[C@@H]2C1 [OA, oleanolic acid] was tested, and the “ΔST Σ” value [1, 8] was 0.739± 0.408Δ mV, the “ΔST 10 sec” value [1, 8] was 0.132± 0.113 mV and the “ΔST 30 sec” value [1, 8] was 0.068± 0.044 mV. For the same compound, the “ΔST 1 min” value [1, 8] was 0.079± 0.052 mV, the “ΔST 2 min” value [1, 8] was 0.061± 0.034 mV and the “ΔST 4 min” value [1, 8] was 0.082± 0.055 mV. The “ΔST 6 min” value [1, 8] was 0.080± 0.067 mV, the “ΔST 8 min” value [1, 8] was 0.073± 0.037 mV and the “ΔST 10 min” value [1, 8] was 0.051± 0.032 mV. For the same compound, the “ΔST 13 min” value [1, 8] was 0.060± 0.037 mV, the “ΔST 15 min” value [1, 8] was 0.053± 0.042 mV and the “Serum TC After administration” value [2, 9] was 12.05 ± 6.48 mmol/L. The “Serum TC prior to administration” value [2, 9] was 14.97 ± 5.22 mmol/L, the “Serum TG After administration” value [2, 9] was 1.83 ± 1.02 mmol/L and the “Serum TG prior to administration” value [2, 9] was 2.06 ± 0.44 mmol/L.
